pIC50: −log10 of the molar value.
Target: SARS-CoV-2 NSP3 Mac1 (Severe acute respiratory syndrome coronavirus 2, UniProt P0DTD1)
Assay: biochemical
Assay type: binding
Settings: MIDAS hit compounds and analogues; for inhibition at 125 µM: read-out: Inhibition at top concentration of 125 µM (%); for IC50 in µM / pIC50: top concentration 125 µM, 8-point 1:1 dilution, duplicate; for pIC50: read-out: IC50

In the case of `CC(=O)N1CCN(C(=O)c2cc(-c3cccs3)nc3c2c(C)nn3C)CC1` [IAL-MD0054, CC(=O)N1CCN(CC1)C(=O)C=2C=C(N=C3N(C)N=C(C)C23)C4=CC=CS4], the inhibition at 125 µM was 41.5% and the “IC50 in µM” value was “Not measurable”.
`CC(C)n1ncc2c(C(=O)Nc3ccncc3)cc(-c3cccs3)nc21` [IAL-MD0055, CC(C)N1N=CC=2C(=CC(=NC12)C3=CC=CS3)C(=O)NC=4C=CN=CC4] was tested, and the inhibition at 125 µM was 19.4% and the “IC50 in µM” value was “Not measurable”.
In the case of `CCn1ncc2c(C(=O)N3CCC(C(O)c4ccccc4)CC3)cc(-c3cccs3)nc21` (stereo not shown) [IAL-MD0056, CCN1N=CC=2C(=CC(=NC12)C3=CC=CS3)C(=O)N4CCC(CC4)C(O)C=5C=CC=CC5], the inhibition at 125 µM was 7% and the “IC50 in µM” value was “Not measurable”.
`COc1ccc(-c2cc(C(=O)Nc3ccc(S(C)(=O)=O)cc3)c3ccccc3n2)cc1` [IAL-MD0058, COC=1C=CC(=CC1)C=2C=C(C(=O)NC=3C=CC(=CC3)S(=O)(=O)C)C=4C=CC=CC4N2] was tested, and the inhibition at 125 µM was 18.7% and the “IC50 in µM” value was “Not measurable”.
`CC(=O)Nc1ccc(C=Cc2cc(C(=O)O)c3cc(C)ccc3n2)cc1` [IAL-MD0059, CC(=O)NC=1C=CC(C=CC=2C=C(C(=O)O)C=3C=C(C)C=CC3N2)=CC1] was tested, and the inhibition at 125 µM was 63% and the pIC50 was 4.64.
`CC(C)n1ncc2c(C(=O)N3CCc4ccccc4C3)cc(-c3cccs3)nc21` [IAL-MD0060, CC(C)N1N=CC=2C(=CC(=NC12)C3=CC=CS3)C(=O)N4CCC=5C=CC=CC5C4] was tested, and the inhibition at 125 µM was 1.9% and the “IC50 in µM” value was “Not measurable”.
In the case of `CCn1ncc2c(C(=O)Nc3cccc(-c4nnco4)c3)cc(-c3cccs3)nc21` [IAL-MD0061, CCN1N=CC=2C(=CC(=NC12)C3=CC=CS3)C(=O)NC=4C=CC=C(C4)C5=NN=CO5], the inhibition at 125 µM was 7% and the “IC50 in µM” value was “Not measurable”.
`CCn1ncc2c(C(=O)N(C)CC(=O)NCc3ccco3)cc(-c3cccs3)nc21` [IAL-MD0062, CCN1N=CC=2C(=CC(=NC12)C3=CC=CS3)C(=O)N(C)CC(=O)NCC4=CC=CO4] was tested, and the inhibition at 125 µM was 42.2% and the “IC50 in µM” value was “Not measurable”.
Work on `CC(C)n1ncc2c(C(=O)N3CCNC(=O)C3)cc(-c3cccs3)nc21` [IAL-MD0064, CC(C)N1N=CC=2C(=CC(=NC12)C3=CC=CS3)C(=O)N4CCNC(=O)C4] yielded an inhibition at 125 µM of 78.7% and a pIC50 of 4.60.
With `CC(C)n1ncc2c(C(=O)N(C)Cc3ccc4c(c3)OCO4)cc(-c3cccs3)nc21` [IAL-MD0065, CC(C)N1N=CC=2C(=CC(=NC12)C3=CC=CS3)C(=O)N(C)CC=4C=CC=5OCOC5C4] the inhibition at 125 µM was 9.5% and the “IC50 in µM” value was “Not measurable”.
With `CCn1ncc2c(C(=O)N3CCCC3c3ccc(OC)cc3)cc(-c3cccs3)nc21` (stereo not shown) [IAL-MD0066, CCN1N=CC=2C(=CC(=NC12)C3=CC=CS3)C(=O)N4CCCC4C=5C=CC(OC)=CC5] the inhibition at 125 µM was 13.5% and the “IC50 in µM” value was “Not measurable”.
With `CCn1ncc2c(C(=O)N3CCN(C(=O)c4ccccc4)CC3)cc(-c3ccccc3)nc21` [IAL-MD0069, CCN1N=CC=2C(=CC(=NC12)C=3C=CC=CC3)C(=O)N4CCN(CC4)C(=O)C=5C=CC=CC5] the “Inhibition at top concentration of 125 µM (%)” value was “Not measurable” and the “IC50 in µM” value was “Not measurable”.
In the case of `CC(C)n1ncc2c(C(=O)N3CCNC(=O)C3)cc(-c3ccco3)nc21` [IAL-MD0070, CC(C)N1N=CC=2C(=CC(=NC12)C3=CC=CO3)C(=O)N4CCNC(=O)C4], the inhibition at 125 µM was 83.2% and the pIC50 was 4.79.
For `CCn1ncc2c(C(=O)N(Cc3ccccn3)C(C)C)cc(-c3cccs3)nc21` [IAL-MD0071, CCN1N=CC=2C(=CC(=NC12)C3=CC=CS3)C(=O)N(CC=4C=CC=CN4)C(C)C], the inhibition at 125 µM was 36.8% and the “IC50 in µM” value was “Not measurable”.
`CC1c2cccn2CCN1C(=O)c1cc(-c2cccs2)nc2c1cnn2C(C)C` (stereo not shown) [IAL-MD0072, CC(C)N1N=CC=2C(=CC(=NC12)C3=CC=CS3)C(=O)N4CCN5C=CC=C5C4C] was tested, and the inhibition at 125 µM was 9.8% and the “IC50 in µM” value was “Not measurable”.
`Cc1cc(CN(C)C(=O)c2cc(-c3cccs3)nc3c2cnn3C(C)C)no1` [IAL-MD0073, CC(C)N1N=CC=2C(=CC(=NC12)C3=CC=CS3)C(=O)N(C)CC=4C=C(C)ON4] was tested, and the inhibition at 125 µM was 47% and the “IC50 in µM” value was “Not measurable”.
For `CCn1ncc2c(C(=O)NCC(=O)N(C)C)cc(-c3cccs3)nc21` [IAL-MD0074, CCN1N=CC=2C(=CC(=NC12)C3=CC=CS3)C(=O)NCC(=O)N(C)C], the inhibition at 125 µM was 77.7% and the pIC50 was 4.60.
In the case of `CC(C)n1ncc2c(C(=O)N3CCNC(=O)C3(C)C)cc(-c3cccs3)nc21` [IAL-MD0075, CC(C)N1N=CC=2C(=CC(=NC12)C3=CC=CS3)C(=O)N4CCNC(=O)C4(C)C], the inhibition at 125 µM was 30.9% and the “IC50 in µM” value was “Not measurable”.
`CC(=O)Nc1cccc(C(=O)N2CCC(c3c[nH]c4ncccc34)CC2)c1` [IAL-MD0078, CC(=O)NC=1C=CC=C(C1)C(=O)N2CCC(CC2)C3=CNC=4N=CC=CC34] was tested, and the inhibition at 125 µM was 10.5% and the “IC50 in µM” value was “Not measurable”.
`COc1ccc(-c2cc(C(=O)Nc3nnc[nH]3)c3ccccc3n2)cc1` [IAL-MD0079, COC=1C=CC(=CC1)C=2C=C(C(=O)NC3=NN=CN3)C=4C=CC=CC4N2] was tested, and the inhibition at 125 µM was 16.3% and the “IC50 in µM” value was “Not measurable”.
For `CC(C)n1ncc2c(C(=O)N3CCCCC3C(=O)N3CCCC3)cc(-c3cccs3)nc21` (stereo not shown) [IAL-MD0080, CC(C)N1N=CC=2C(=CC(=NC12)C3=CC=CS3)C(=O)N4CCCCC4C(=O)N5CCCC5], the inhibition at 125 µM was 45.9% and the “IC50 in µM” value was “Not measurable”.
`CNC(=O)CN(C)C(=O)c1cc(-c2cccs2)nc2c1c(C)nn2C` [IAL-MD0081, CNC(=O)CN(C)C(=O)C=1C=C(N=C2N(C)N=C(C)C12)C3=CC=CS3] was tested, and the inhibition at 125 µM was 53% and the “IC50 in µM” value was “Not measurable”.
In the case of `CC(=O)N1CCN(C(=O)c2cc(-c3ccccc3)nc3c2cnn3C(C)C)CC1` [IAL-MD0082, CC(C)N1N=CC=2C(=CC(=NC12)C=3C=CC=CC3)C(=O)N4CCN(CC4)C(=O)C], the “Inhibition at top concentration of 125 µM (%)” value was “Not measurable” and the “IC50 in µM” value was “Not measurable”.
In the case of `CC(C)n1ncc2c(C(=O)N3CCCC3)cc(-c3cccs3)nc21` [IAL-MD0083, CC(C)N1N=CC=2C(=CC(=NC12)C3=CC=CS3)C(=O)N4CCCC4], the inhibition at 125 µM was 47.4% and the “IC50 in µM” value was “Not measurable”.
`COc1ncccc1C(=O)N1CCC(c2c[nH]c3ncccc23)CC1` [IAL-MD0084, COC=1N=CC=CC1C(=O)N2CCC(CC2)C3=CNC=4N=CC=CC34] was tested, and the inhibition at 125 µM was 13.2% and the “IC50 in µM” value was “Not measurable”.
In the case of `CC(C)n1ncc2c(C(=O)N3CCCC(C)(O)C3)cc(-c3cccs3)nc21` (stereo not shown) [IAL-MD0086, CC(C)N1N=CC=2C(=CC(=NC12)C3=CC=CS3)C(=O)N4CCCC(C)(O)C4], the inhibition at 125 µM was 47.7% and the “IC50 in µM” value was “Not measurable”.
`CC1CN(C(=O)c2cc(-c3cccs3)nc3c2cnn3C(C)C)C(C)(C)CO1` (stereo not shown) [IAL-MD0087, CC(C)N1N=CC=2C(=CC(=NC12)C3=CC=CS3)C(=O)N4CC(C)OCC4(C)C] was tested, and the inhibition at 125 µM was 22.3% and the “IC50 in µM” value was “Not measurable”.
With `COc1ccc(-c2cc(C(=O)N(C)C)c3ccccc3n2)cc1` [IAL-MD0088, COC=1C=CC(=CC1)C=2C=C(C(=O)N(C)C)C=3C=CC=CC3N2] the inhibition at 125 µM was 79.4% and the pIC50 was 4.62.
For `O=C(O)c1cc(-c2ccc(OC(F)F)cc2)nc2ccccc12` [IAL-MD0089, OC(=O)C=1C=C(N=C2C=CC=CC12)C=3C=CC(OC(F)F)=CC3], the inhibition at 125 µM was 5.7% and the “IC50 in µM” value was “Not measurable”.
For `CC(C)n1ncc2c(C(=O)Nc3ccn(C)n3)cc(-c3cccs3)nc21` [IAL-MD0090, CC(C)N1N=CC=2C(=CC(=NC12)C3=CC=CS3)C(=O)NC=4C=CN(C)N4], the inhibition at 125 µM was 11% and the “IC50 in µM” value was “Not measurable”.
`CCn1ncc2c(C(=O)NCCNC(C)=O)cc(-c3cccs3)nc21` [IAL-MD0092, CCN1N=CC=2C(=CC(=NC12)C3=CC=CS3)C(=O)NCCNC(=O)C] was tested, and the inhibition at 125 µM was 17.1% and the “IC50 in µM” value was “Not measurable”.
In the case of `CCCN(CC(=O)Nc1ccccc1C)C(=O)c1cc(-c2cccs2)nc2c1cnn2CC` [IAL-MD0093, CCCN(CC(=O)NC=1C=CC=CC1C)C(=O)C=2C=C(N=C3N(CC)N=CC23)C4=CC=CS4], the inhibition at 125 µM was 7.7% and the “IC50 in µM” value was “Not measurable”.
In the case of `COc1ccc(-c2cc(C(=O)O)c3ccccc3n2)cc1OC` [IAL-MD0094, COC=1C=CC(=CC1OC)C=2C=C(C(=O)O)C=3C=CC=CC3N2], the inhibition at 125 µM was 31.9% and the “IC50 in µM” value was “Not measurable”.
For `CC(C#N)NC(=O)c1cc(-c2cccs2)nc2c1cnn2C(C)C` (stereo not shown) [IAL-MD0095, CC(C)N1N=CC=2C(=CC(=NC12)C3=CC=CS3)C(=O)NC(C)C#N], the inhibition at 125 µM was 19.8% and the “IC50 in µM” value was “Not measurable”.
In the case of `CCn1ncc2c(C(=O)N3CCCC(C)C3)cc(-c3ccccc3)nc21` (stereo not shown) [IAL-MD0096, CCN1N=CC=2C(=CC(=NC12)C=3C=CC=CC3)C(=O)N4CCCC(C)C4], the inhibition at 125 µM was 3.9% and the “IC50 in µM” value was “Not measurable”.
In the case of `CCn1ncc2c(C(=O)Nc3ccc(C(N)=O)cc3)cc(-c3cccs3)nc21` [IAL-MD0097, CCN1N=CC=2C(=CC(=NC12)C3=CC=CS3)C(=O)NC=4C=CC(=CC4)C(=O)N], the inhibition at 125 µM was 7.7% and the “IC50 in µM” value was “Not measurable”.
`CCCNC(=O)c1cc(-c2ccc(OC)cc2)nc2ccccc12` [IAL-MD0098, CCCNC(=O)C=1C=C(N=C2C=CC=CC12)C=3C=CC(OC)=CC3] was tested, and the inhibition at 125 µM was 22% and the “IC50 in µM” value was “Not measurable”.
`COc1ccc(-c2cc(C(=O)NCC(F)(F)F)c3ccccc3n2)cc1` [IAL-MD0099, COC=1C=CC(=CC1)C=2C=C(C(=O)NCC(F)(F)F)C=3C=CC=CC3N2] was tested, and the inhibition at 125 µM was 22.2% and the “IC50 in µM” value was “Not measurable”.
`COc1ccc(-c2cc(C(=O)Nc3cccnc3)c3ccccc3n2)cc1` [IAL-MD0100, COC=1C=CC(=CC1)C=2C=C(C(=O)NC=3C=CC=NC3)C=4C=CC=CC4N2] was tested, and the inhibition at 125 µM was 15.9% and the “IC50 in µM” value was “Not measurable”.
`COc1ccc(-c2cc(C(=O)Nc3cccc(S(=O)(=O)N(C)C)c3)c3ccccc3n2)cc1` [IAL-MD0101, COC=1C=CC(=CC1)C=2C=C(C(=O)NC=3C=CC=C(C3)S(=O)(=O)N(C)C)C=4C=CC=CC4N2] was tested, and the inhibition at 125 µM was 25.2% and the “IC50 in µM” value was “Not measurable”.
In the case of `COc1ccc(-c2cc(C(=O)NC3CC3)c3ccccc3n2)cc1` [IAL-MD0103, COC=1C=CC(=CC1)C=2C=C(C(=O)NC3CC3)C=4C=CC=CC4N2], the inhibition at 125 µM was 38.4% and the “IC50 in µM” value was “Not measurable”.

Source: article PMC9965906, “Discovery and Development Strategies for SARS-CoV-2 NSP3 Macrodomain Inhibitors” (Pathogens, 2023)
